In patent US9113629B2, “4-amino-6-(4-substituted-phenyl)-picolinates and 6-amino-2-(4-substituted-phenyl)-pyrimidine-4-carboxylates and their use as herbicides” (DOW AGROSCIENCES LLC, priority 2013, dated 2015):
Where two headings read alike, the source gives them in different places.

How the values were obtained:
APESV = assay: Pre-emergent Test III, preemergent activity in wheat and barley; assay type: in vivo, Apera spica-venti
Description: (§1) Pre-emergent Test III. Seeds of test species were planted into square plastic pots (10 cm wide) containing sandy loam soil. After planting, all pots were sub-irrigated 16 h prior to compound application. A weighed amount, determined by the highest rate to be tested, of each test compound was placed in a 25 mL glass vial and was dissolved in 4 mL of a 97:3 v/v mixture of acetone and DMSO to obtain concentrated stock solutions. […] The concentrated stock solutions obtained were diluted with 20 mL of an aqueous mixture containing water and 0.02% w/v (weight/volume) of Triton X-155 to obtain spray solutions containing the highest application rates. Additional application rates were obtained by serial dilution of 12 mL of the high rate solution into a solution containing 2 mL of 97:3 v/v mixture of acetone and DMSO and 10 mL of an aqueous mixture containing water and 0.02% w/v (weight/volume) of Triton X-155 to obtain 1⁄2×, 1⁄4×, 1⁄8× and 1/16× rates of the high rate. Compound requirements are based upon a 12 mL application volume at a rate of 187 liters per hectare (L/ha). Formulated compounds were applied to the soil surface with an overhead Mandel track sprayer equipped with […] nozzles calibrated to deliver 187 L/ha over an application area of 0.503 square meters. Control pots were sprayed in the same manner with the solvent blank. The treated pots and control pots were placed in a greenhouse as described above and watered through surface irrigation. After 21 d, the condition of the test pots as compared with that of the untreated pots was determined visually and scored on a scale of 0 to 100 percent where 0 corresponds to no herbicidal effect and 100 corresponds to plant death or lack of emergence from the soil. By applying the well-accepted probit analysis as described by J. Berkson in Journal of the American Statistical Society, 48, 565 (1953) and by D. Finney in “Probit Analysis” Cambridge University Press (1952), the above data can be used to calculate GR20, GR50, GR80 and GR90 values, which are defined as growth reduction factors that correspond to the effective dose of herbicide required to kill or control 20 percent, 50 percent, 80 percent or 90 percent, respectively, of a target plant.

LOLSS = assay: as above; assay type: in vivo, Lolium multiflorum, Lolium rigidum
Description: as §1

SETVI = assay: as above; assay type: in vivo, Setaria viridis
Description: as §1

HORSS = assay: as above; assay type: in vivo, Hordeum vulgare
Description: as §1

TRZSS = assay: as above; assay type: in vivo, Triticum aestivum
Description: as §1

[1] = test system: test plant species in Direct Seeded Rice; assay: Postemergence herbicidal activity in direct seeded rice (Table 13); assay type: in vivo; details: for pest or weed control at 35 g/ha / pest or weed control at 70 g/ha: post-emergence, 504 h; for pest or weed control at 35 g/ha: 35 g ai/ha; for pest or weed control at 70 g/ha: 70 g ai/ha
In short: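 Greenhouse-grown plants at the second or third true leaf stage were sprayed postemergence at 187 L/ha with compound in acetone/DMSO (final 16.2%/0.5%) plus aqueous Agri-dex crop oil concentrate; controls got solvent blank. Injury was rated visually 0–100% after 20-22 days, and GR20, GR50, GR80 and GR90 derived by probit analysis.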

[2] = 21 days after application, dose to kill or control 50%, probit analysis
[3] = 21 days after application, dose to kill or control 80%, probit analysis
[4] = 21 days after application, dose to kill or control 20%, probit analysis
[5] = BRAPP: broadleaf signalgrass, Brachiaria platyphylla, probit analysis
[6] = CYPSS: sedge (Cyperus difformis, esculentus, iria), probit analysis
[7] = ECHSS: barnyardgrass (Echinochloa crus-galli), junglerice (Echinochloa colonum), probit analysis
[8] = LEFSS: sprangletop (Leptochloa chinensis, Leptochloa dubia), probit analysis
[9] = SCPJU: Japanese bulrush, Scirpus juncoides, probit analysis
[10] = SEBEX: hemp sesbania, Sesbania exaltata, probit analysis
[11] = BRAPP: broadleaf signalgrass, Brachiaria platyphylla, read-out: Visual Growth Reduction (%) 21 Days After Application BRAPP
[12] = CYPSS: sedge (Cyperus difformis, esculentus, iria), read-out: Visual Growth Reduction (%) 21 Days After Application CYPSS
[13] = ECHSS: barnyardgrass (Echinochloa crus-galli), junglerice (Echinochloa colonum), read-out: Visual Growth Reduction (%) 21 Days After Application ECHSS
[14] = LEFSS: sprangletop (Leptochloa chinensis, Leptochloa dubia), read-out: Visual Growth Reduction (%) 21 Days After Application LEFSS
[15] = ORYSS: Oryza sativa, read-out: Visual Growth Reduction (%) 21 Days After Application ORYSS
[16] = SCPJU: Japanese bulrush, Scirpus juncoides, read-out: Visual Growth Reduction (%) 21 Days After Application SCPJU
[17] = SEBEX: hemp sesbania, Sesbania exaltata, read-out: Visual Growth Reduction (%) 21 Days After Application SEBEX

## COC(=O)c1nc(-c2ccc(Br)c(F)c2)c(F)c(N)c1Cl [Compound 49]
APESV; 35 g ai/ha
  Visual Growth Reduction (%) 21 Days After Application, APESV: F (30-44)
APESV; 70 g ai/ha
  Visual Growth Reduction (%) 21 Days After Application, APESV: E (45-59)
APESV; [2]
  GR50 APESV: >70 g ai/ha
APESV; [3]
  GR80 APESV: >70 g ai/ha
LOLSS; 35 g ai/ha
  Visual Growth Reduction (%) 21 Days After Application, LOLSS: G (0-29)
LOLSS; 70 g ai/ha
  Visual Growth Reduction (%) 21 Days After Application, LOLSS: G (0-29)
LOLSS; [2]
  GR50 LOLSS: >70 g ai/ha
LOLSS; [3]
  GR80 LOLSS: >70 g ai/ha
SETVI; 35 g ai/ha
  Visual Growth Reduction (%) 21 Days After Application, SETVI: F (30-44)
SETVI; 70 g ai/ha
  Visual Growth Reduction (%) 21 Days After Application, SETVI: F (30-44)
SETVI; [2]
  GR50 SETVI: >70 g ai/ha
SETVI; [3]
  GR80 SETVI: >70 g ai/ha
HORSS; 35 g ai/ha
  Visual Growth Reduction (%) 21 Days After Application, HORSS: G (0-29)
HORSS; 70 g ai/ha
  Visual Growth Reduction (%) 21 Days After Application, HORSS: G (0-29)
HORSS; [4]
  GR20 HORSS: >70 g ai/ha
TRZSS; 35 g ai/ha
  Visual Growth Reduction (%) 21 Days After Application, TRZSS: G (0-29)
TRZSS; 70 g ai/ha
  Visual Growth Reduction (%) 21 Days After Application, TRZSS: G (0-29)
TRZSS; [4]
  GR20 TRZSS: >70 g ai/ha

## COC(=O)c1nc(-c2ccc(Cl)c(F)c2)c(F)c(N)c1Cl [Compound 216]
[1]; [5]
  GR50 BRAPP: 8 g ai/ha
  GR80 BRAPP: 27 g ai/ha
[1]; [6]
  GR50 CYPSS: 10 g ai/ha
  GR80 CYPSS: 70 g ai/ha
[1]; [7]
  GR50 ECHSS: 4 g ai/ha
  GR80 ECHSS: 15 g ai/ha
[1]; [8]
  GR50 LEFSS: 8 g ai/ha
  GR80 LEFSS: 23 g ai/ha
[1]; ORYSS: Oryza sativa (crop), probit analysis
  GR20 ORYSS: >70 g ai/ha
[1]; [9]
  GR50 SCPJU: 1 g ai/ha
  GR80 SCPJU: 1 g ai/ha
[1]; [10]
  GR50 SEBEX: 1 g ai/ha
  GR80 SEBEX: 1 g ai/ha
[1]; [11]
  pest or weed control at 35 g/ha: 85 to 94%
  pest or weed control at 70 g/ha: 85 to 94%
[1]; [12]
  pest or weed control at 35 g/ha: 85 to 94%
  pest or weed control at 70 g/ha: 85 to 94%
[1]; [13]
  pest or weed control at 35 g/ha: 85 to 94%
  pest or weed control at 70 g/ha: 95 to 100%
[1]; [14]
  pest or weed control at 35 g/ha: 85 to 94%
  pest or weed control at 70 g/ha: 95 to 100%
[1]; [15]
  pest or weed control at 35 g/ha: 0 to 29%
  pest or weed control at 70 g/ha: 0 to 29%
[1]; [16]
  pest or weed control at 35 g/ha: 95 to 100%
  pest or weed control at 70 g/ha: 95 to 100%
[1]; [17]
  pest or weed control at 35 g/ha: 95 to 100%
  pest or weed control at 70 g/ha: 95 to 100%
